Like-named read-outs stand apart in the source and are kept apart here. Positions of bridges follow the written chain, without caps; N, C: chain ends. Non-standard residues stand in square brackets, D forms with d. Residues, ends and D or L forms follow the SMILES beside them. R8 = C=CCCCCCC[C@@](C)(N)C(=O)O; S5 = C=CCCC[C@](C)(N)C(=O)O
Assays:
[1] = tested on: hDM2-overexpressing SJSA-1 cells; format: cell-based
Experimental: SJSA-1 cells were seeded into a 96-well plate (2,000 cells/well) and incubated overnight at 37° C. After washing twice in PBS, cells are incubated with peptide or Nutlin-3a (Santa Cruz Biotechnology, Santa Cruz, Calif.) in Opti-MEM (Invitrogen, Carlsbad, Calif.) for 24 hours. Cell viability was then assayed using CellTiter-Glo (Promega, Madison, Wis.) according to the manufacturer's protocol. Luminescence measurements were taken on a SpectraMax M5 plate reader (Molecular Devices, Sunnyvale, Calif.).
Previously it has been shown that the efficacy with which hydrocarbon-stapled peptides reach the cytosol correlates with their efficacy in cell-based assays (LaRochelle et al., J. Am. Chem. Soc., 2015, 137, 2536-2541). To examine whether the biological activity of these penta-arg peptides correlated with how efficiently they accessed the cytosol, cell viability assays were performed using N-acetylated versions of the peptides and hDM2-overexpressing SJSA-1 cells (FIG. 4 and FIG. 5).

[2] = tested on: hDM2-overexpressing SJSA-1 cells; conditions: literature values (Bernal et al. 2007; 2010); read-out: previously reported EC50, SJSA-1 cell viability; cited from earlier work
HeLa cells = conditions: cited from earlier work

| Compound | EC50 ([1]; 24 h) [µM] | other results |
| --- | --- | --- |
| CC(=O)N[C@@H](CCCNC(=N)N)C(=O)N[C@@H](CO)C(=O)N[C@@H](CCC(N)=O)C(=O)N[C@@H](CCCNC(=N)N)C(=O)N[C@@H](CCCNC(=N)N)C(=O)N[C@@H](Cc1ccccc1)C(=O)N[C@]1(C)CCCCCCC=CCCC[C@@](C)(C(=O)N[C@@H](CCC(=O)O)C(=O)N[C@@H](CC(N)=O)C(N)=O)NC(=O)[C@H](CC(C)C)NC(=O)[C@H](CC(C)C)NC(=O)[C@H](CCCNC(=N)N)NC(=O)[C@H](Cc2c[nH]c3ccccc23)NC(=O)[C@H](CC(=O)O)NC(=O)[C@H](CCCNC(=N)N)NC1=O [BP1.2^Ac, Ac-RSQRRFR8RDWRLLS5EN-NH2] (Ac-RSQRRF[R8]RDWRLL[S5]EN-NH2; staple 7-14) | 1.9 |  |
| CC(=O)N[C@@H](CCCNC(=N)N)C(=O)N[C@@H](CO)C(=O)N[C@@H](CCC(N)=O)C(=O)N[C@@H](CCC(=O)O)C(=O)N[C@@H](CCCNC(=N)N)C(=O)N[C@@H](Cc1ccccc1)C(=O)N[C@]1(C)CCCCCCC=CCCC[C@@](C)(C(=O)N[C@@H](CCCNC(=N)N)C(=O)N[C@@H](CCCNC(=N)N)C(N)=O)NC(=O)[C@H](CC(C)C)NC(=O)[C@H](CCCNC(=N)N)NC(=O)[C@H](CCCCN)NC(=O)[C@H](Cc2c[nH]c3ccccc23)NC(=O)[C@H](CC(C)C)NC(=O)[C@H](CC(=O)O)NC1=O [BP1.4^Ac, Ac-RSQERFR8DLWKRLS5RR-NH2] (Ac-RSQERF[R8]DLWKRL[S5]RR-NH2; staple 7-14) | 7.7 |  |
| CC(=O)N[C@@H](CC(C)C)C(=O)N[C@@H](CCCNC(=N)N)C(=O)N[C@@H](CCCNC(=N)N)C(=O)N[C@@H](CCC(=O)O)C(=O)N[C@H](C(=O)N[C@@H](Cc1ccccc1)C(=O)N[C@]1(C)CCCCCCC=CCCC[C@@](C)(C(=O)N[C@@H](CCCNC(=N)N)C(=O)N[C@@H](CC(N)=O)C(N)=O)NC(=O)[C@H](CC(C)C)NC(=O)[C@H](CCCNC(=N)N)NC(=O)[C@H](CCCCN)NC(=O)[C@H](Cc2c[nH]c3ccccc23)NC(=O)[C@H](CCCNC(=N)N)NC(=O)[C@H](CC(=O)O)NC1=O)[C@@H](C)O [BP1.5^Ac, Ac-LRRETFR8DRWKRLS5RN-NH2] (Ac-LRRETF[R8]DRWKRL[S5]RN-NH2; staple 7-14) | 7.7 |  |
| CC(=O)N[C@@H](CC(C)C)C(=O)N[C@@H](CO)C(=O)N[C@@H](CCC(N)=O)C(=O)N[C@@H](CCC(=O)O)C(=O)N[C@H](C(=O)N[C@@H](C)C(=O)N[C@]1(C)CCCCCCC=CCCC[C@@](C)(C(=O)N[C@@H](CCCNC(=N)N)C(=O)N[C@@H](CCCNC(=N)N)C(N)=O)NC(=O)[C@H](CC(C)C)NC(=O)[C@H](CCCNC(=N)N)NC(=O)[C@H](CCCNC(=N)N)NC(=O)[C@H](Cc2c[nH]c3ccccc23)NC(=O)[C@H](CC(C)C)NC(=O)[C@H](CCCNC(=N)N)NC1=O)[C@@H](C)O [BP1.6F19A^Ac, Ac-LSQETAR8RLWRRLS5RR-NH2] (Ac-LSQETA[R8]RLWRRL[S5]RR-NH2; staple 7-14) | 4.8 |  |
| CC(=O)N[C@@H](CC(C)C)C(=O)N[C@@H](CO)C(=O)N[C@@H](CCC(N)=O)C(=O)N[C@@H](CCC(=O)O)C(=O)N[C@H](C(=O)N[C@@H](Cc1ccccc1)C(=O)N[C@]1(C)CCCCCCC=CCCC[C@@](C)(C(=O)N[C@@H](CCCNC(=N)N)C(=O)N[C@@H](CCCNC(=N)N)C(N)=O)NC(=O)[C@H](CC(C)C)NC(=O)[C@H](CCCNC(=N)N)NC(=O)[C@H](CCCNC(=N)N)NC(=O)[C@H](Cc2c[nH]c3ccccc23)NC(=O)[C@H](CC(C)C)NC(=O)[C@H](CCCNC(=N)N)NC1=O)[C@@H](C)O [BP1.6^Ac, Ac-LSQETFR8RLWRRLS5RR-NH2] (Ac-LSQETF[R8]RLWRRL[S5]RR-NH2; staple 7-14) | 1.9 |  |
| COc1ccc(C2=N[C@@H](c3ccc(Cl)cc3)[C@@H](c3ccc(Cl)cc3)N2C(=O)N2CCNC(=O)C2)c(OC(C)C)c1 [Nutlin-3a, reference compound] |  | EC50 ([1]; 24 hours in Opti-MEM, N-acetylated peptides, read-out: EC50, decrease in SJSA-1 cell viability): 22.8 µM; EC50 [2]: ~7 µM |
| Ac-LSQETFR8DLWKLLS5EN-NH2 (Ac-LSQETF[R8]DLWKLL[S5]EN-NH2; staple 7-14) [SAH-p53-4, reference compound] |  | effect on SJSA-1 cell viability (in words) ([1]; concentrations as high as 60 μM, 24 hours): no decrease in viability; ability to breach the plasma membrane as judged by flow cytometry (HeLa cells): fails to effectively breach the plasma membrane |
